Assay results published in patent publication US5545637A, “Process for preparing pharmaceutical compositions containing crystalline anhydrous mycophenolate mofetil salts” (Syntex (U.S.A.) Inc., priority 1995, dated 1996).
Counter-ions that a name gives are not always drawn. One block for each compound: values may come before it.

How the values were obtained:
Format in all cases: physicochemical
[1] = Solubility in typical intravenous formulation solutions; settings: viewed over 3 days, typical intravenous formulation solutions (e.g., 5% dextrose solution or water suitable for injection), 4320 min
[2] = Comparative stability of MM salt forms; settings: comparison of salt forms, in words
[3] = Comparative solubility of MM salt forms

- solubility ([1]; hydrochloride): approximately 84 mg/ml
SMILES: COc1c(C)c2c(c(O)c1C/C=C(\C)CCC(=O)OCCN1CCOCC1)C(=O)OC2 [2-(4-morpholino)ethyl-(E)-6-(1,3-dihydro-4-hydroxy-6-methoxy-7-methyl-3-oxo-5-isobenzofuranyl)-4-methyl-4-hexenoate hydrochloride]

SMILES: COc1c(C)c2c(c(O)c1C/C=C(\C)CCC(=O)OCCN1CCOCC1)C(=O)OC2 [MM in its monohydrate salt form]
- stability [2]: more stable than MM in its amorphous salt form

- solubility characteristics ([3]; amorphous vs monohydrate salt form, in words): better solubility characteristics
SMILES: COc1c(C)c2c(c(O)c1C/C=C(\C)CCC(=O)OCCN1CCOCC1)C(=O)OC2 [amorphous salt form]

SMILES: COc1c(C)c2c(c(O)c1C/C=C(\C)CCC(=O)OCCN1CCOCC1)C(=O)OC2 [crystalline anhydrous salt form of MM]
- increase in solubility over the monohydrate salt form ([3]; anhydrous vs monohydrate salt form): about a two-fold increase in solubility over the monohydrate salt form
- stability [2]: the same stability characteristics of the monohydrate salt form

- solubility [1]: approximately 40 mg/ml
SMILES: COc1c(C)c2c(c(O)c1C/C=C(\C)CCC(=O)OCCN1CCOCC1)C(=O)OC2 [crystalline monohydrate form]
